Here are results for one compound from BindingDB's records for patent US20250179055 (Innovstone Therapeutics, 2025).

The target in this experiment is Apolipoprotein(a) (Homo sapiens, UniProt P08519). The experiment can be described thus: Methods of ELISA Assay on Screening Lp(a) Assembly Inhibition. As for the experimental part:
1) Added 100 μL of capture antibody to each well of a pre-coated ELISA plate and incubated overnight at 25° C.2) Added 300 μL of washing solution to each well and washed 5 times for 1 min each time.3) Added 100 μL of blocking solution to each well and incubated at 25° C. for 2 h.4) Added 300 μL of washing solution to each well and washed 5 times for 1 min each time.5) Added 100 μL of sample to each well and incubated at 25° C. for 1 h.6) Added 300 μL of washing solution to each well and washed 5 times for 1 min each time.7) Added 100 μL of detection antibody to each well and incubated at 25° C. for 1 h.8) Added 300 μL of washing solution to each well and washed 5 times for 1 min each time.9) Added 100 μL substrate solution (Color Reagent A: Color Reagent B, 1:1) to each well and incubated for 20 min at 25° C. in the dark.10) Added […] of stop solution to each well, gently blowed and sucked several times with the pipette tip, and read within 5 min.

Structures are written as SMILES.

As usually defined, the IC50 is the midpoint of a concentration-inhibition curve. Read a low IC50 as inhibition by little substance.

Apolipoprotein(a), sequence (P08519 whole entry): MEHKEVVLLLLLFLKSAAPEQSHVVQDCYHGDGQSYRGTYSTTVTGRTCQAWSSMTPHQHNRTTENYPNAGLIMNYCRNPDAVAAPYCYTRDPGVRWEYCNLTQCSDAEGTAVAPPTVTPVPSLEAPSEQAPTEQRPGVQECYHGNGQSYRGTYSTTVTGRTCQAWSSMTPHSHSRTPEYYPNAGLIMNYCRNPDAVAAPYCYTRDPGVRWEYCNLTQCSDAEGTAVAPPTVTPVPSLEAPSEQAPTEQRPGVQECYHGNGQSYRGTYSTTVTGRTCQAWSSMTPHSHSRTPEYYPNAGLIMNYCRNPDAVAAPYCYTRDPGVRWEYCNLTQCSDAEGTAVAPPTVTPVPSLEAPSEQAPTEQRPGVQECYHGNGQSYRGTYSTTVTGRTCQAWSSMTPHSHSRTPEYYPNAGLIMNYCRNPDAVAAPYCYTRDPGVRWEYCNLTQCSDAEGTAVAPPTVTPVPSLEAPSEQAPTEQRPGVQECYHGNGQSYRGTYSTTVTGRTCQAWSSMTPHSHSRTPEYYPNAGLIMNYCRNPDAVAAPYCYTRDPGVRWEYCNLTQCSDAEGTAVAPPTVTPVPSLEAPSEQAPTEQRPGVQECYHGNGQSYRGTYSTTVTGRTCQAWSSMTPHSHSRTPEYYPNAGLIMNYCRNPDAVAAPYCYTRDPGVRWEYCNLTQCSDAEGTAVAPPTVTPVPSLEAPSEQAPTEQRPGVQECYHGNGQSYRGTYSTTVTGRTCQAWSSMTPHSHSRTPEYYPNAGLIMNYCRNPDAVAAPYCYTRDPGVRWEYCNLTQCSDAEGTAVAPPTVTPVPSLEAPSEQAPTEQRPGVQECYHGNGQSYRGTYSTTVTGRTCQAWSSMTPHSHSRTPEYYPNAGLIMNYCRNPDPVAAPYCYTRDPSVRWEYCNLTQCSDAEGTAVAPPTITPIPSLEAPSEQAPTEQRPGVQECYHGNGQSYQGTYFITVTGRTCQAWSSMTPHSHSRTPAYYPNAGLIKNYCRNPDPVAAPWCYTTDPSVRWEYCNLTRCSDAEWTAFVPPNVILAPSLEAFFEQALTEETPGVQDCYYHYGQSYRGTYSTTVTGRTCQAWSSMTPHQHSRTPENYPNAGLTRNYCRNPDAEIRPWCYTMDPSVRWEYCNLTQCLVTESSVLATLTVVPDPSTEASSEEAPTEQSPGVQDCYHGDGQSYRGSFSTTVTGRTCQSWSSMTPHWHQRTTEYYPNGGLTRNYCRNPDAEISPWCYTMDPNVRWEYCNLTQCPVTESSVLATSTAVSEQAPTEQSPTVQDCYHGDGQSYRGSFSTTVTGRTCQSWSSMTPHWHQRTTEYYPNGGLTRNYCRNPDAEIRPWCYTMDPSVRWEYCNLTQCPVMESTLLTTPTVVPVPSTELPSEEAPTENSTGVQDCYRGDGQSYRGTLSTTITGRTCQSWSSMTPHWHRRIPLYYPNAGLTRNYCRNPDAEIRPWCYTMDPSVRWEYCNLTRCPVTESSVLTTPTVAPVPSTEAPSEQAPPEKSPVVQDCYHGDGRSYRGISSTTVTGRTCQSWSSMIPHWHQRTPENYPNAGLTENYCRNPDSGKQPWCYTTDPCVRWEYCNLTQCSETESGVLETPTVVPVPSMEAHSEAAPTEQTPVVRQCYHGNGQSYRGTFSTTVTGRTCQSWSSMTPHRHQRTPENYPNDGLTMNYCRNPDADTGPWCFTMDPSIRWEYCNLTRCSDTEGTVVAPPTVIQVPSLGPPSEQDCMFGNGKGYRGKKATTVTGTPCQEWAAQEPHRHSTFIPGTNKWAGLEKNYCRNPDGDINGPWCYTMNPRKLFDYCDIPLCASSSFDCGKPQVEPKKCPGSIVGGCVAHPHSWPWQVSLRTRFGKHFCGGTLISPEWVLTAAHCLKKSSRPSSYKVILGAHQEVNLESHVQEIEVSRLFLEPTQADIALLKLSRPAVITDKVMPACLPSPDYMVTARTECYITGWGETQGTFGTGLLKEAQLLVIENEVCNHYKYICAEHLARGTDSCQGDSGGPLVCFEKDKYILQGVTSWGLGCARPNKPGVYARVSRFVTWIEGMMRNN

Regarding `O=C(O)[C@@H](Cc1cc2cc(CN(Cc3ccc4oc(C[C@H](C(=O)O)[C@H]5CCNC5)cc4c3)Cc3ccc4oc(C[C@H](C(=O)O)[C@H]5CCNC5)cc4c3)ccc2o1)[C@H]1CCNC1` [US20250179055, Compound 127], the concentration for half-maximal inhibition (IC50) turned out to be 900 pM.
